Counter-ions that a name gives are not always drawn. Like-named read-outs stand apart in the source and are kept apart here. Values belong to the compound of their own block, whether it stands above or below them.
Experiments:
[1] = test system: primary cortical neurons from PDAPP transgenic embryonic mice; assay: PDAPP Primary Neuronal Assay (Abeta ELISA); format: cell-based; conditions: Mus musculus, Primary cortical neuron, 24 h
Description: (§1) For in vitro enzymatic and cellular assays, test compounds are prepared in DMSO to make up a 10 mM stock solution. The stock solution is serially diluted in DMSO to obtain a ten-point dilution curve with final compound concentrations ranging from […] to 0.05 nM in a 96-well round-bottom plate before conducting the in vitro enzymatic and whole cell assays.
A confirmatory whole cell assay is also run in primary neuronal cultures generated from PDAPP transgenic embryonic mice. Primary cortical neurons are prepared from Embryonic Day 16 PDAPP embryos and cultured in 96 well plates (15×10^4 cells/well in DMEM/F12 (1:1) plus 10% FBS). After 2 days in vitro, culture media is replaced with serum free DMEM/F12 (1:1) containing B27 supplement and 2 μM (final) of Ara-C (Sigma, C1768). At day 5 in vitro, neurons are incubated at 37° C. for 24 h in the presence/absence of inhibitors (diluted in DMSO) at the desired concentration. At the end of the incubation, conditioned media are analyzed for evidence of beta-secretase activity, for example, by analysis of Abeta peptides. Total Abeta peptides (Abeta 1-x) are measured by a sandwich ELISA, using monoclonal 266 as a capture antibody and biotinylated 3D6 as reporting antibody. Alternatively, Abeta 1-40 and Abeta 1-42 peptides are measured by a sandwich ELISA, using monoclonal 2G3 as a capture antibody for Abeta 1-40, and monoclonal 21F12 as a capture antibody for Abeta 1-42. Both Abeta 1-40 and Abeta 1-42 ELISAs use biotinylated 3D6 as the reporting antibody. The concentration of Abeta released in the conditioned media following the compound treatment corresponds to the activity of BACE1 under such conditions. The 10-point inhibition curve is plotted and fitted with the four-parameter logistic equation to obtain the EC50 and IC50 values for the Abeta-lowering effect.

[2] = target: human BACE1(1-460):Fc (Homo sapiens (Human), UniProt P56817); assay: BACE1 FRET Assay; format: biochemical; conditions: purified recombinant huBACE1:Fc, FRET substrate, pH 4.6; Mean ± SEM
Description: as §1
Human BACE1 (accession number: AF190725) is cloned from total brain cDNA by RT-PCR. The nucleotide sequences corresponding to amino acid sequences #1 to 460 are inserted into the cDNA encoding human IgG1 (Fc) polypeptide (Vassar et al. 1999). This fusion protein of BACE1(1-460) and human Fc, named huBACE1:Fc, is constructed into the pJB02 vector. Human BACE1(1-460):Fc (huBACE1:Fc) is transiently expressed in HEK293 cells. 250 μg cDNA of each construct is mixed with Fugene 6 and added to 1 liter HEK293 cells. Four days after the transfection, conditioned media are harvested for purification.
huBACE1:Fc is purified by Protein A chromatography. The enzyme is stored at −80° C. in small aliquots.
Serial dilutions of test compounds are prepared as described above. Compounds are further diluted 20× in KH2PO4 buffer. […] The content is mixed well on a plate shaker for 10 minutes. Fifteen μL of two hundred pM human BACE1(1-460):Fc (See Vasser, et al., Science, 286, 735-741 (1999)) in the KH2PO4 buffer is added to the plate containing substrate and test compounds to initiate the reaction. The RFU of the mixture at time 0 is recorded at excitation wavelength 355 nm and emission wavelength 460 nm, after brief mixing on a plate shaker. The reaction plate is covered with aluminum foil and kept in a dark humidified oven at room temperature for 16 to 24 h. The RFU at the end of incubation is recorded with the same excitation and emission settings used at time 0. The difference of the RFU at time 0 and the end of incubation is representative of the activity of BACE1 under the compound treatment. RFU differences are plotted versus inhibitor concentration and a curve is fitted with a four-parameter logistic equation to obtain the EC50 and IC50 values. (See Sinha, et al., Nature, 402, 537-540 […]).

[3] = test system: HEK293Swe cells; assay: HEK293Swe Whole Cell Assay (Abeta ELISA); format: cell-based; conditions: Homo sapiens
Description: as §1
In vitro Abeta reduction assays have been described in the literature (See Dovey, et al., Journal of Neurochemistry, 76, 173-181 (2001); Seubert, et al., Nature, 361, 260 (1993); and Johnson-Wood, et al., Proc. Natl. Acad. Sci. USA, 94, 1550-1555 (1997)).
At the end of the incubation, conditioned media are analyzed for evidence of beta-secretase activity, for example, by analysis of Abeta peptides. Total Abeta peptides (Abeta 1-x) are measured by a sandwich ELISA, using monoclonal 266 as a capture antibody and biotinylated 3D6 as reporting antibody. Alternatively, Abeta 1-40 and Abeta 1-42 peptides are measured by a sandwich ELISA, using monoclonal 2G3 as a capture antibody for Abeta 1-40, and monoclonal 21F12 as a capture antibody for Abeta 1-42. Both Abeta 1-40 and Abeta 1-42 ELISAs use biotinylated 3D6 as the reporting antibody. The concentration of Abeta released in the conditioned media following the compound treatment corresponds to the activity of BACE1 under such conditions. The 10-point inhibition curve is plotted and fitted with the four-parameter logistic equation to obtain the EC50 and IC50 values for the Abeta-lowering effect.

[4] = test system: PDAPP mice; assay: In Vivo Inhibition of Beta-Secretase (brain Abeta 1-x reduction); design: species or system mouse; conditions: for Abeta 1-x peptide levels reduced in brain cortex / Abeta 1-x peptide levels reduced in brain hippocampus: 3 hours after administration, compared to vehicle-treated mice
From the text: Several animal models, including mouse, guinea pig, dog, and monkey, may be used to screen for inhibition of beta-secretase activity in vivo following compound treatment. Animals used in this invention can be wild type, transgenic, or gene knockout animals. For example, the PDAPP mouse model, prepared as described in Games et al., Nature 373, 523-527 (1995), and other non-transgenic or gene knockout animals are useful to analyze in vivo inhibition of Abeta and sAPPbeta production in the presence of inhibitory compounds. Generally, 2 to 12 month old PDAPP mice, gene knockout mice or non-transgenic animals are administered compound formulated in vehicles, such as corn oil, cyclodextran, phosphate buffers, PHARMASOLVE®, or other suitable vehicles. One to twenty-four hours following the administration of compound, animals are sacrificed, and brains as well as cerebrospinal fluid and plasma are removed for analysis of Abetas, C99, and sAPP fragments. (See May, et al., Journal of Neuroscience, 31, 16507-16516 (2011)).
For standard in vivo pharmacology studies, animals are dosed with various concentrations of compound and compared to a vehicle-treated control group dosed at the same time. For some time course studies, brain tissue, plasma, or cerebrospinal fluid is obtained from selected animals, beginning at time 0 to establish a baseline. Compound or appropriate vehicle is administered to other groups and sacrificed at various times after dosing. Brain tissue, plasma, or cerebrospinal fluid is obtained from selected animals and analyzed for the presence of APP cleavage products, including Abeta peptides, sAPPbeta, and other APP fragments, for example, by specific sandwich ELISA assays. At the end of the test period, animals are sacrificed and brain tissues, plasma, or cerebrospinal fluid are analyzed for the presence of Abeta peptides, C99, and sAPPbeta, as appropriate. Brain tissues of APP transgenic animals may also be analyzed for the amount of beta-amyloid plaques following compound treatment. “Abeta 1-x peptide” as used herein refers to the sum of Abeta species that begin with residue 1 and ending with a C-terminus greater than residue 28. This detects the majority of Abeta species and is often called “total Abeta”.

[5] = Abeta 1-40, Mean ± SEM, read-out: PDAPP Neuron A-beta (1-40) ELISA IC50
[6] = Abeta 1-42, Mean ± SEM, read-out: PDAPP Neuron A-beta (1-42) ELISA IC50
[7] = HEK293, Abeta 1-40 in conditioned media, read-out: HEK 293 Swe A-beta (1-40) ELISA IC50
[8] = HEK293, Abeta 1-42 in conditioned media, read-out: HEK 293 Swe A-beta (1-42) ELISA IC50

Sequence of human BACE1(1-460):Fc (P56817 22-460): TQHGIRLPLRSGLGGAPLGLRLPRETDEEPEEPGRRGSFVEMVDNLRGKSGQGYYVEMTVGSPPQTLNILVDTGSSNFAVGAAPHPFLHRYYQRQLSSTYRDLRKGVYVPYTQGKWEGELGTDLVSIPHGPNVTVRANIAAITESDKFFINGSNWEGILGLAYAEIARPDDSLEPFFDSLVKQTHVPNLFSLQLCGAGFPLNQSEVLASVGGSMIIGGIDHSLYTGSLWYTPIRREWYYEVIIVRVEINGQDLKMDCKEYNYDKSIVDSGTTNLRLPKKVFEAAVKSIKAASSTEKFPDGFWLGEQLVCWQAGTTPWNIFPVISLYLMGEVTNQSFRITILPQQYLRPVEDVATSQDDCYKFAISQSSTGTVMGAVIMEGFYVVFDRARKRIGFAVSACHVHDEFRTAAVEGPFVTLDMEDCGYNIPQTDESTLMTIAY

SMILES: COc1cnc(C(=O)Nc2ccc(F)c([C@]34CN(c5ncc(F)cn5)C[C@H]3CSC(N)=N4)c2)cn1 [Example 4, N-[3-[(4aR,7aS)-2-Amino-6-(5-fluoropyrimidin-2-yl)-4,4a,5,7-tetrahydropyrrolo[3,4-d][1,3]thiazin-7a-yl]-4-fluoro-phenyl]-5-methoxy-pyrazine-2-carboxamide hydrochloride]
IC50 [1, 5]: 0.134 nM
IC50 [1, 6]: 0.131 nM

SMILES: NC1=N[C@@]2(c3cc(NC(=O)c4ncc(F)cc4F)ccc3F)CN(c3ncc(F)cn3)C[C@H]2CS1 [Example 8, N-[3-[(4aR,7aS)-2-Amino-6-(5-fluoropyrimidin-2-yl)-4,4a,5,7-tetrahydropyrrolo[3,4-d][1,3]thiazin-7a-yl]-4-fluoro-phenyl]-3,5-difluoro-pyridine-2-carboxamide hydrochloride]
IC50 [1, 5]: 0.285 nM
IC50 [1, 6]: 0.29 nM

IC50 [2]: 0.739 nM
SMILES: NC1=N[C@@]2(c3cccc(NC(=O)c4ncc(F)cc4F)c3)CN(c3ncc(F)cn3)C[C@H]2CS1 [Example 6, N-[3-[(4aR,7aS)-2-Amino-6-(5-fluoropyrimidin-2-yl)-4,4a,5,7-tetrahydropyrrolo[3,4-d][1,3]thiazin-7a-yl]phenyl]-3,5-difluoro-pyridine-2-carboxamide hydrochloride]
IC50 [3, 7]: 0.22 nM
IC50 [3, 8]: 0.211 nM
IC50 [1, 5]: 0.279 nM
IC50 [1, 6]: 0.308 nM

CNS penetration [4]: demonstrate CNS penetration
SMILES: Cl.NC1=N[C@@]2(c3cc(NC(=O)c4ccc(F)cn4)ccc3F)CN(c3ncc(F)cn3)C[C@H]2CS1 [Example 3, N-[3-[(4aR,7aS)-2-Amino-6-(5-fluoropyrimidin-2-yl)-4,4a,5,7-tetrahydropyrrolo[3,4-d][1,3]thiazin-7a-yl]-4-fluoro-phenyl]-5-fluoro-pyridine-2-carboxamide hydrochloride]
IC50 [3, 7]: 1.26 nM
IC50 [3, 8]: 0.299 nM
IC50 [1, 5]: 0.309 nM
IC50 [1, 6]: 0.184 nM
Abeta 1-x peptide levels reduced in brain cortex ([4]; 1 mg/kg oral dose): approximately 34%
Abeta 1-x peptide levels reduced in brain hippocampus ([4]; 1 mg/kg oral dose): approximately 38%
Abeta 1-x peptide levels reduced in brain cortex ([4]; 3 mg/kg oral dose): ~53%
Abeta 1-x peptide levels reduced in brain hippocampus ([4]; 3 mg/kg oral dose): ~50%

IC50 [2]: 0.358 nM
SMILES: N#Cc1ccc(C(=O)Nc2ccc(F)c([C@]34CN(c5ncc(F)cn5)C[C@H]3CSC(N)=N4)c2)nc1 [Example 7, N-[3-[(4aR,7aS)-2-Amino-6-(5-fluoropyrimidin-2-yl)-4,4a,5,7-tetrahydropyrrolo[3,4-d][1,3]thiazin-7a-yl]-4-fluoro-phenyl]-5-cyano-pyridine-2-carboxamide hydrochloride]
IC50 [1, 5]: 0.0873 nM
IC50 [1, 6]: 0.0649 nM

IC50 [2]: 0.482 nM
SMILES: COc1cnc(C(=O)Nc2cccc([C@]34CN(c5ncc(F)cn5)C[C@H]3CSC(N)=N4)c2)cn1 [Example 2, N-{3-[(4aR,7aS)-2-Amino-6-(5-fluoropyrimidin-2-yl)-4a,5,6,7-tetrahydropyrrolo[3,4-d][1,3]thiazin-7a(4H)-yl]phenyl}-5-methoxypyrazine-2-carboxamide hydrochloride]
IC50 [3, 7]: 0.324 nM
IC50 [3, 8]: 0.289 nM
IC50 [1, 5]: 0.244 nM
IC50 [1, 6]: 1.22 nM

IC50 [2]: 0.45 nM
SMILES: N#Cc1ccc(C(=O)Nc2cccc([C@]34CN(c5ncc(F)cn5)C[C@H]3CSC(N)=N4)c2)nc1 [Example 5, N-[3-[(4aR,7aS)-2-Amino-6-(5-fluoropyrimidin-2-yl)-4,4a,5,7-tetrahydropyrrolo[3,4-d][1,3]thiazin-7a-yl]phenyl]-5-cyano-pyridine-2-carboxamide hydrochloride]
IC50 [3, 7]: 0.0887 nM
IC50 [3, 8]: 0.0785 nM
IC50 [1, 5]: 0.132 nM
IC50 [1, 6]: 0.0813 nM

IC50 [2]: 0.61 nM
CNS penetration [4]: demonstrate CNS penetration
SMILES: Cl.NC1=N[C@@]2(c3cccc(NC(=O)c4ccc(F)cn4)c3)CN(c3ncc(F)cn3)C[C@H]2CS1 [Example 1, N-{3-[(4aR,7aS)-2-Amino-6-(5-fluoropyrimidin-2-yl)-4a,5,6,7-tetrahydropyrrolo[3,4-d][1,3]thiazin-7a(4H)-yl]phenyl}-5-fluoropyridine-2-carboxamide hydrochloride]
IC50 [3, 7]: 0.619 nM
IC50 [3, 8]: 0.437 nM
IC50 [1, 5]: 0.487 nM
IC50 [1, 6]: 0.591 nM
Abeta 1-x peptide levels reduced in brain cortex ([4]; 1 mg/kg oral dose): approximately 43%
Abeta 1-x peptide levels reduced in brain hippocampus ([4]; 1 mg/kg oral dose): approximately 34%
Abeta 1-x peptide levels reduced in brain cortex ([4]; 3 mg/kg oral dose): ~59%
Abeta 1-x peptide levels reduced in brain hippocampus ([4]; 3 mg/kg oral dose): ~48%
Abeta 1-x peptide levels reduced in brain cortex ([4]; 10 mg/kg oral dose): ~66%
Abeta 1-x peptide levels reduced in brain hippocampus ([4]; 10 mg/kg oral dose): ~53%

From patent publication US8987254B2, “Tetrahydropyrrolothiazine compounds” (Eli Lilly and Company, priority 2013, dated 2015)
